Drawing on the NIST ThermoML archive (doi:10.1016/j.jct.2012.10.028), this text covers refractive index and mass density for five molecules.

Each structure is given as a SMILES string. Numbers after ± are expanded uncertainties.

Data set [1] in a line: refractive index (Na D-line) (dimensionless). As to conditions: 298.2 K; 101.33 kPa; Liquid; Standard Abbe refractometry.
The conditions of data set [2]: 101.33 kPa, Liquid, Vibrating tube method.

Broadly, the refractive index is a measure of how strongly the sample bends light. A word on the mass density: it is mass per unit of volume. Turning to `CCCCC(CC)CO` (centres undefined) [2-ethyl-1-hexanol], the refractive index in data set [1] was 1.4293 ± 0.0005. Besides, the mass density in data set [2] (298.2 K) was found to be 830.57 ± 0.31 kg/m3.
On to `CC(=O)OCC(C)C` [2-methylpropyl ethanoate], for which the refractive index in data set [1] was found to be 1.3878 ± 0.0005. Further, in data set [2] (293.15 K), the mass density came to 866.58 ± 0.31 kg/m3.
In the case of `O=C1CCCCC1` [cyclohexanone], the refractive index in data set [1] is 1.4503 ± 0.0005. The mass density in data set [2] (298.2 K) was 943.04 ± 0.32 kg/m3.
Take `CCCCCCCCO` [octan-1-ol]: the refractive index in data set [1] is 1.427 ± 0.0005. For the same molecule, in data set [2] (298.2 K), the mass density was 824.1 ± 0.31 kg/m3.
With `O` [water], the refractive index in data set [1] is listed as 1.3325 ± 0.0005.
